Common to all, as to test: ≥ marks a high value that may be exact or a test limit, other limits are often not marked, values filed in µg/mL are converted to µM
For assay [1], the system named is Pseudomonas aeruginosa PAO1.
Assay [2] relates to Enterococcus faecium 5F-10.
Assay [3] has as its system Staphylococcus aureus ATCC 29213.
Assay [4] relates to Enterococcus faecalis 1F-1.
In assay [5] the test system is Bacillus amyloliquefaciens ATCC 23842.
Assay [6] deals with Escherichia coli ATCC 25922.
Assay [7] has as its system Bacillus subtilis ATCC 6051.
For assay [8], the system named is Bacillus licheniformis ATCC 14580.
Assay [9] relates to Proteus mirabilis ATCC 35659.
Assay [10] concerns Bacillus cereus ATCC 14579.
The test system of assay [11] is Salmonella enterica ATCC H9812.
The test system of assay [12] is Escherichia coli J2210.
Assay [13] deals with Escherichia coli JJ2489.
Assay [14] relates to Escherichia coli JW2778 ΔygdD.
The subject of assay [15] is Salmonella enterica subsp. enterica serovar Enteritidis MH91989.
For assay [16], the system named is Escherichia coli MC1041.
For assay [17], the system named is Salmonella typhimurium SL1344.
The subject of assay [18] is Escherichia coli BW25113.
Assay [19] deals with Escherichia coli JW0013.
Assay [20] concerns Escherichia coli JW0368 ΔsbmA.
Assay [21] concerns Pseudomonas aeruginosa CICC 11411.
The subject of assay [22] is Pseudomonas aeruginosa 21328.
In assay [23] the test system is Pseudomonas aeruginosa CICC 11421.
The test system of assay [24] is Pseudomonas aeruginosa CICC 11431.
Assay [25] concerns Pseudomonas aeruginosa CICC 21625.
Assay [26] relates to Pseudomonas aeruginosa 25349.
In assay [27] the test system is Pseudomonas aeruginosa CICC 21630.
Assay [28] concerns Pseudomonas aeruginosa CICC 10419.
Assay [29] deals with Candida albicans MDM8.
The test system of assay [30] is Bacillus megaterium ATCC 10778.
In assay [31] the test system is Serratia marcescens ATCC 4112.
Assay [32] concerns Enterobacter cloacae beta-12.
Assay [33] deals with Candida tropicalis IOC 4560.
Assay [34] relates to Escherichia coli SBS 363.
Assay [35] relates to Pseudomonas aeruginosa NCIB 10421.
Assay [36] has as its system Micrococcus luteus A270.
Assay [37] has as its system Bacillus subtilis ATCC 6633.
The subject of assay [38] is Pseudomonas aeruginosa ATCC 27853.

Converted amounts (≈) assume the structure as drawn. A value given as a limit tells only on which side of the number the result lay.

The term MIC denotes the smallest concentration in the dilution series that meets the test's criterion for growth inhibition. Read a high MIC as a less susceptible organism.

Regarding `CC(C)C[C@H](N)C(=O)N[C@@H](CO)C(=O)N[C@@H](CCCN=C(N)N)C(=O)N[C@H](C(=O)N[C@@H](CC(=O)O)C(=O)O)C(C)C` [LSRVD], the MIC is greater than 217 µM in assay [1]; no less than 217 µM in assay [2]; greater than 217 µM in assay [3]; no less than 217 µM in assay [4]; no less than 217 µM in assay [5]; 109 µM (≈ 64 µg/mL) in assay [6]. The MIC in assay [7] was no less than 217 µM; in assay [8], no less than 217 µM; in assay [9], no less than 217 µM; in assay [10], no less than 217 µM; in [11] it was no less than 109 µM.

With `CC(C)C[C@H](NC(=O)[C@H](CCC(=O)O)NC(=O)[C@H](CC(=O)O)NC(=O)[C@@H](NC(=O)[C@H](CCCN=C(N)N)NC(=O)[C@H](CO)NC(=O)[C@@H](N)CC(C)C)C(C)C)C(=O)O` [LSRVDEL], the minimal inhibitory concentration (MIC) is greater than 154 µM in assay [1]; no less than 154 µM in [2]; greater than 154 µM in assay [3]; no less than 154 µM in [4]; no less than 154 µM in assay [5]; greater than 154 µM in assay [6]. The MIC in [7], in assay [8], in assay [9], in assay [10] and in [11] was no less than 154 µM each time.

Regarding `CC(C)C[C@H](NC(=O)[C@H](CCCN=C(N)N)NC(=O)[C@@H]1CCCN1C(=O)[C@H](CCCN=C(N)N)NC(=O)[C@@H]1CCCN1C(=O)[C@@H]1CCCN1C(=O)[C@H](CCCN=C(N)N)NC(=O)[C@@H]1CCCN1C(=O)[C@H](CCC(N)=O)NC(=O)[C@@H]1CCCN1C(=O)[C@H](CCCN=C(N)N)NC(=O)[C@H](Cc1ccc(O)cc1)NC(=O)[C@@H](NC(=O)[C@@H]1CCCN1C(=O)[C@H](CCCCN)NC(=O)[C@H](CC(N)=O)NC(=O)[C@H](CC(N)=O)NC(=O)CN)C(C)C)C(=O)O` [GNNKPVYRPQPRPPRPRL], the minimum inhibitory concentration (MIC) was found to be 0.252 µM (≈ 0.54 µg/mL) in assay [12]; 0.133 µM (≈ 0.285 µg/mL) in assay [13]; 0.192 µM (≈ 0.411 µg/mL) in [14]; 0.096 µM (≈ 0.206 µg/mL) in assay [15]; 0.126 µM (≈ 0.27 µg/mL) in [16]; 0.192 µM (≈ 0.411 µg/mL) in assay [17]. In addition, the results for the MIC in assay [18], in [19] and in [20] were 0.096 µM (≈ 0.206 µg/mL), 0.096 µM (≈ 0.206 µg/mL) and 0.133 µM (≈ 0.285 µg/mL), respectively.

As to `CC(C)C[C@H](NC(=O)[C@H](CCCN=C(N)N)NC(=O)[C@H](CCCN=C(N)N)NC(=O)[C@H](CC(C)C)NC(=O)[C@H](CCCN=C(N)N)NC(=O)[C@H](CCCN=C(N)N)NC(=O)[C@H](CCCN=C(N)N)NC(=O)[C@H](Cc1c[nH]c2ccccc12)NC(=O)[C@H](Cc1c[nH]c2ccccc12)NC(=O)[C@H](Cc1c[nH]c2ccccc12)NC(=O)[C@H](CCCN=C(N)N)NC(=O)[C@H](CCCN=C(N)N)NC(=O)[C@H](CCCN=C(N)N)NC(=O)[C@H](CC(C)C)NC(=O)[C@H](CCCN=C(N)N)NC(=O)[C@H](CCCN=C(N)N)NC(=O)[C@@H](N)CC(C)C)C(N)=O` [LRRLRRRWWWRRRLRRL], the MIC was 3.09 µM (≈ 8 µg/mL) in [3]; 1.54 µM (≈ 4 µg/mL) in [21]; 1.54 µM (≈ 4 µg/mL) in assay [6]; 1.54 µM (≈ 4 µg/mL) in assay [22]; 3.09 µM (≈ 8 µg/mL) in assay [23]; 1.54 µM (≈ 4 µg/mL) in [24]. Besides, the minimum inhibitory concentration (MIC) is 3.09 µM (≈ 8 µg/mL) in assay [25], 1.54 µM (≈ 4 µg/mL) in [26], 1.54 µM (≈ 4 µg/mL) in [27] and 3.09 µM (≈ 8 µg/mL) in assay [28].

For `CC[C@H](C)[C@H](N)C(=O)N[C@@H](CC(C)C)C(=O)NCC(=O)N[C@@H](CCCCN)C(=O)N[C@H](C(=O)N[C@@H](Cc1c[nH]c2ccccc12)C(=O)N[C@@H](CCC(=O)O)C(=O)N1CCC[C@H]1C(=O)N[C@H](C(=O)N[C@@H](CCCCN)C(=O)N[C@@H](CO)C(=O)N[C@@H](CC(C)C)C(=O)N[C@@H](Cc1ccccc1)C(N)=O)[C@@H](C)CC)[C@@H](C)CC` [ILGKIWEPIKSLF], the MIC in assay [3] is 50 µM (≈ 77.1 µg/mL); in assay [29], no less than 50 µM; in [30], 3.13 µM (≈ 4.83 µg/mL); in [31] it was 3.13 µM (≈ 4.83 µg/mL); in assay [32] it was no less than 50 µM; in assay [33], 12.5 µM (≈ 19.3 µg/mL). The MIC is no less than 50 µM in assay [34], no less than 50 µM in assay [35], 12.5 µM (≈ 19.3 µg/mL) in [36] and 25 µM (≈ 38.6 µg/mL) in assay [37].

Take `CC(C)C[C@H](NC(=O)[C@H](CCCN=C(N)N)NC(=O)[C@H](CCCN=C(N)N)NC(=O)[C@H](CC(C)C)NC(=O)[C@H](CCCN=C(N)N)NC(=O)[C@H](CCCN=C(N)N)NC(=O)[C@H](CCCN=C(N)N)NC(=O)[C@H](Cc1c[nH]c2ccccc12)NC(=O)[C@H](CCCN=C(N)N)NC(=O)[C@H](CCCN=C(N)N)NC(=O)[C@H](CCCN=C(N)N)NC(=O)[C@H](CC(C)C)NC(=O)[C@H](CCCN=C(N)N)NC(=O)[C@H](CCCN=C(N)N)NC(=O)[C@@H](N)CC(C)C)C(N)=O` [LRRLRRRWRRRLRRL]: the minimal inhibitory concentration (MIC) in assay [38] came out at 7.21 µM (≈ 16 µg/mL); in assay [3], 7.21 µM (≈ 16 µg/mL); in assay [21], 14.4 µM (≈ 32 µg/mL); in [6], 7.21 µM (≈ 16 µg/mL); in [22], 14.4 µM (≈ 32 µg/mL); in assay [23] it was 14.4 µM (≈ 32 µg/mL). Moreover, the minimal inhibitory concentration (MIC) stood at 7.21 µM (≈ 16 µg/mL) in [24]; 7.21 µM (≈ 16 µg/mL) in assay [25]; 3.61 µM (≈ 8 µg/mL) in [26]; 7.21 µM (≈ 16 µg/mL) in [27]; 14.4 µM (≈ 32 µg/mL) in [28].

For the origin of these results see DBAASP.
